Measured values reported in ChEMBL document CHEMBL3885881, “DrugMatrix”.
Several values for one entry are separate records, joined by “and”; a condition that tells them apart may be missing. Identical values can stand only once.

Organism: Rattus norvegicus
Test: DrugMatrix - Regimen: Daily Repeat
Type: toxicity, organism-based, Sprague-Dawley
Design: regimen Daily Repeat, gender Male, age 6-8 weeks
Conditions: in vivo, vehicle 100 % SALINE; for ALANINE AMINOTRANSFERASE / ALBUMIN / ALKALINE PHOSPHATASE / ASPARTATE AMINOTRANSFERASE / BLOOD UREA NITROGEN / CARBON DIOXIDE / CHLORIDE / CHOLESTEROL / CREATINE PHOSPHOKINASE / CREATININE / GLUCOSE / LACTATE DEHYDROGENASE / LIPASE / PHOSPHORUS / POTASSIUM / SODIUM / TOTAL BILIRUBIN / TOTAL PROTEIN / URIC ACID: tissue Plasma
[1] = ip, 2 mg/kg, 120 h, tissue Blood, route intraperitoneal, dose level High, time 5 day
[2] = ip, 2 mg/kg, 120 h, route intraperitoneal, dose level High, time 5 day
[3] = ip, 2 mg/kg, […], tissue Blood, route intraperitoneal, dose level High, time 14 day
[4] = ip, 2 mg/kg, […], tissue Blood, route intraperitoneal, dose level High, time 28 day
[5] = ip, 2 mg/kg, […], route intraperitoneal, dose level High, time 14 day
[6] = ip, 2 mg/kg, […], route intraperitoneal, dose level High, time 28 day
[7] = po, 0 mg/kg, 72 h, tissue Blood, route oral GAVAGE, dose level Control, time 3 day

## LEAD (II) ACETATE
[1]
  BASOPHIL: 0.92% and 0.35%
  EOSINOPHIL: 1.12% and 0.5%
  ERYTHROCYTE COUNT: 7.54 x10E6/uL and 7.26 x10E6/uL
  HEMATOCRIT: 45.88% and 47.9%
  HEMOGLOBIN: 15 G/DL and 15.17 G/DL
  LEUKOCYTE COUNT: 13.21 x10E3/uL and 9.67 x10E3/uL
  LYMPHOCYTE: 76.12% and 82.6%
  MEAN CORPUSCULAR HEMOGLOBIN: 20.9 pg
  MEAN CORPUSCULAR HEMOGLOBIN CONCENTRATION: 32.66 G/DL and 31.67 G/DL
  MEAN CORPUSCULAR VOLUME: 66 fL
  MONOCYTE: 1.94% and 1.57%
  NEUTROPHIL: 19.32% and 13.95%
  PLATELET COUNT: 1605.4 x10E3/uL and 1679.25 x10E3/uL
[2]
  ALANINE AMINOTRANSFERASE: 30.6 u/L and 16 u/L
  ALBUMIN: 3.32 G/DL and 4.1 G/DL
  ALKALINE PHOSPHATASE: 221 u/L and 290.75 u/L
  ASPARTATE AMINOTRANSFERASE: 83.2 u/L and 78.25 u/L
  BLOOD UREA NITROGEN: 13.8 mg/dL and 16.75 mg/dL
  CARBON DIOXIDE: 24 mmol/L
  CHLORIDE: 109.2 MEQ/L and 108.75 MEQ/L
  CHOLESTEROL: 57 mg/dL and 58.25 mg/dL
  CREATINE PHOSPHOKINASE: 338.6 u/L and 224.25 u/L
  CREATININE: 0.54 mg/dL and 0.4 mg/dL
  GLUCOSE: 117.4 mg/dL and 114.75 mg/dL
  LACTATE DEHYDROGENASE: 76.2 u/L
  LIPASE: 36 u/L and 14.25 u/L
  PHOSPHORUS: 10.02 mg/dL and 13.3 mg/dL
  POTASSIUM: 6.38 MEQ/L and 6.15 MEQ/L
  SODIUM: 151.2 MEQ/L and 152.25 MEQ/L
  TOTAL BILIRUBIN: 0.16 mg/dL and 0.3 mg/dL
  TOTAL PROTEIN: 5.8 G/DL and 6.3 G/DL
  URIC ACID: 1.08 mg/dL and 2.1 mg/dL
[3]
  ABSOLUTE BASOPHIL: 88 cells/µL
  ABSOLUTE EOSINOPHIL: 74 cells/µL
  ABSOLUTE LYMPHOCYTE: 8320 cells/µL
  ABSOLUTE MONOCYTE: 390 cells/µL
  ABSOLUTE SEGMENTED NEUTROPHIL: 3420 cells/µL
  HEMOGLOBIN: 14.2 G/DL
  MEAN CORPUSCULAR VOLUME: 59.1 fL
[4]
  ABSOLUTE BASOPHIL: 93 cells/µL
  ABSOLUTE EOSINOPHIL: 130 cells/µL
  ABSOLUTE LYMPHOCYTE: 9520 cells/µL
  ABSOLUTE MONOCYTE: 320 cells/µL
  ABSOLUTE SEGMENTED NEUTROPHIL: 2680 cells/µL
  BASOPHIL: 0.79%
  EOSINOPHIL: 1.01%
  ERYTHROCYTE COUNT: 8.38 x10E6/uL
  HEMATOCRIT: 46.51%
  HEMOGLOBIN: 14.88 G/DL
  LEUKOCYTE COUNT: 12.81 x10E3/uL
  LYMPHOCYTE: 74.22%
  MEAN CORPUSCULAR HEMOGLOBIN: 17.76 pg
  MEAN CORPUSCULAR HEMOGLOBIN CONCENTRATION: 32.02 G/DL
  MEAN CORPUSCULAR VOLUME: 55.46 fL
  MONOCYTE: 2.51%
  NEUTROPHIL: 20.93%
  PLATELET COUNT: 1429.8 x10E3/uL
[5]
  CARBON DIOXIDE: 26 mmol/L
  TOTAL PROTEIN: 5.9 G/DL
[6]
  ALANINE AMINOTRANSFERASE: 25.8 u/L
  ALBUMIN: 3.52 G/DL
  ALKALINE PHOSPHATASE: 146.4 u/L
  ASPARTATE AMINOTRANSFERASE: 80.7 u/L
  BLOOD UREA NITROGEN: 13.3 mg/dL
  CHLORIDE: 109.1 MEQ/L
  CHOLESTEROL: 54 mg/dL
  CREATINE PHOSPHOKINASE: 159.1 u/L
  CREATININE: 0.58 mg/dL
  GLUCOSE: 112.6 mg/dL
  LACTATE DEHYDROGENASE: 73.7 u/L
  LIPASE: 26.7 u/L
  PHOSPHORUS: 9.13 mg/dL
  POTASSIUM: 6.27 MEQ/L
  SODIUM: 150.5 MEQ/L
  TOTAL BILIRUBIN: 0.21 mg/dL
  TOTAL PROTEIN: 6.39 G/DL
  URIC ACID: 1.41 mg/dL
[7]
  ABSOLUTE BASOPHIL: 0 CELLS/uL
  ABSOLUTE EOSINOPHIL: 37 CELLS/uL
  ABSOLUTE LYMPHOCYTE: 12359.33 CELLS/uL
  ABSOLUTE MONOCYTE: 122.67 CELLS/uL
  ABSOLUTE SEGMENTED NEUTROPHIL: 847.67 CELLS/uL
  BASOPHIL: 0%
  EOSINOPHIL: 0.33%
  ERYTHROCYTE COUNT: 5.75 x10E6/uL
  HEMATOCRIT: 36.08%
  LEUKOCYTE COUNT: 13.37 x10E3/uL
  MEAN CORPUSCULAR HEMOGLOBIN CONCENTRATION: 38.98 G/DL
  MONOCYTE: 1%
  NEUTROPHIL: 6.17%
  NUCLEATED RED BLOOD CELLS: 0.17 /100WBC
  PLATELET COUNT: 1202.17 x10E3/uL
